Test system: Aβ1-40 production in rat cortical neurons
Assay: Aβ1-40 level in conditioned medium of rat cortical neurons (rodent Aβ immunoassay)
Assay type: cell-based
Settings: rat cortical neurons of 7 days of culture, treated at various concentrations for 7 days (FIG. 2B); read-out: IC50 for reduction of Aβ1-40 level in conditioned medium
Description: Mouse monoclonal antibody specific for the N-terminal of mouse/rat Aβ was immobilized by incubation of 96-well polystyrene plate with 50 ul of the antibody at 4 ug/ml in each well in a coating buffer (0.1 M NaHCO3 pH 8.2) overnight at 4° C. The plates were washed thereafter each step for 3 times with 200 μl/well PBST (PBS with 0.5% Tween-20). The wells were then sequentially incubated with 50 μl/well test samples containing mouse/rat or human Aβ1-40 or Aβ1-42 overnight at 4° C. Primary rabbit antibodies specific for either Aβ1-40 or Aβ1-42 (BioSource International Inc., Camarillo, Calif.) were added to each well at 50 ul/well for a final concentration of 400 ng/ml, and incubated at room temperature. […] The color signal was measured at […] in a spectrophotometer. […] This indicates the specificity of the assay for rodent Aβ The assay detected both mouse/rat Aβ1-40 and Aβ1-42 at levels less than 15 ng/ml (FIG. 1C).
The amount released can be reduced by a γ-secretase inhibitor. […] The cortical neurons of 7 days of culture were treated with gamma-secretase inhibitor L-685,458 at various concentrations for 7 days and the Aβ1-40 level was measured in the conditioned medium. […]
The effect of nicotinic receptor ligands on Aβ production was analyzed by measurement of the Aβ1-40 level in the conditioned media of rat cortical cultures treated with α7 nAChR selective ligands for 7 days. […]

Structure (SMILES): CC(C)C[C@H](NC(=O)[C@H](Cc1ccccc1)C[C@@H](O)[C@H](Cc1ccccc1)NC(=O)OC(C)(C)C)C(=O)N[C@@H](Cc1ccccc1)C(N)=O [L-685,458]
- IC50: 431 nM

— US20080234311A1, “IMMUNOASSAY FOR DETECTION AND QUANTIFICATION OF AMYLOID-beta PEPTIDES” (priority 2006, published 2008)
